# Experimental data taken from ChEMBL document CHEMBL2157909, “Design, synthesis, spectral and biological evaluation of novel 1-allyl substituted 2,6-diphenylpiperidin-4-ones and its derivatives of oximes/oxime ethers” (2012).
# How the values were obtained:
# Staphylococcus aureus = assay: Antibacterial activity against Staphylococcus aureus ATCC 25930 after 24 hrs by two fold serial dilution method; assay type: functional; details: ATCC 25930, 24 h
# Bacillus subtilis = assay: Antibacterial activity against Bacillus subtilis ATCC 530 after 24 hrs by two fold serial dilution method; assay type: functional; details: ATCC 530, 24 h
# Salmonella typhi = assay: Antibacterial activity against Salmonella typhi ATCC 25021 after 24 hrs by two fold serial dilution method; assay type: functional, Salmonella enterica subsp. enterica serovar Typhi; details: Salmonella enterica, ATCC 25021, 24 h
# Escherichia coli = assay: Antibacterial activity against Escherichia coli ATCC 26032 after 24 hrs by two fold serial dilution method; assay type: functional; details: ATCC 26032, 24 h
# Pseudomonas = assay: Antibacterial activity against Pseudomonas ATCC 27853 after 24 hrs by two fold serial dilution method; assay type: functional; details: ATCC 27853, 24 h
# Penicillium chrysogenum = assay: Antifungal activity against Penicillium chrysogenum ATCC 28089 after 72 to 96 hrs by two fold serial dilution method; assay type: functional
# Aspergillus niger = assay: Antifungal activity against Aspergillus niger ATCC 635 after 72 to 96 hrs by two fold serial dilution method; assay type: functional
# Rhizopus = assay: Antifungal activity against Rhizopus sp. ATCC 2842 after 72 to 96 hrs by two fold serial dilution method; assay type: functional
# Fusarium oxysporum = assay: Antifungal activity against Fusarium oxysporum ATCC 48112 after 72 to 96 hrs by two fold serial dilution method; assay type: functional
# Aspergillus flavus = assay: Antifungal activity against Aspergillus flavus ATCC 525 after 72 to 96 hrs by two fold serial dilution method; assay type: functional
smiles,measurement,setting,value
C=CCN1[C@@H](c2ccccc2)CC(=O)C[C@H]1c1ccccc1,MIC,Staphylococcus aureus,6.25 µg/mL
same,MIC,Bacillus subtilis,100 µg/mL
same,MIC,Salmonella typhi,50 µg/mL
same,MIC,Escherichia coli,200 µg/mL
same,MIC,Pseudomonas,25 µg/mL
same,MIC,Penicillium chrysogenum,12.5 µg/mL
same,MIC,Aspergillus niger,25 µg/mL
same,MIC,Rhizopus,50 µg/mL
same,MIC,Fusarium oxysporum,100 µg/mL
same,MIC,Aspergillus flavus,100 µg/mL
C=CCN1[C@H](c2ccccc2)[C@@H](C)C(=O)[C@@H](C)[C@@H]1c1ccccc1,MIC,Staphylococcus aureus,12.5 µg/mL
same,MIC,Bacillus subtilis,25 µg/mL
same,MIC,Salmonella typhi,100 µg/mL
same,MIC,Escherichia coli,100 µg/mL
same,MIC,Pseudomonas,50 µg/mL
same,MIC,Penicillium chrysogenum,50 µg/mL
same,MIC,Aspergillus niger,100 µg/mL
same,MIC,Rhizopus,200 µg/mL
same,MIC,Fusarium oxysporum,50 µg/mL
same,MIC,Aspergillus flavus,100 µg/mL
C=CCN1[C@@H](c2ccccc2)C/C(=N/O)C[C@H]1c1ccccc1 (relative stereo),MIC,Staphylococcus aureus,50 µg/mL
same,MIC,Bacillus subtilis,6.25 µg/mL
same,MIC,Salmonella typhi,100 µg/mL
same,MIC,Escherichia coli,25 µg/mL
same,MIC,Pseudomonas,50 µg/mL
same,MIC,Penicillium chrysogenum,50 µg/mL
same,MIC,Aspergillus niger,12.5 µg/mL
same,MIC,Rhizopus,25 µg/mL
same,MIC,Fusarium oxysporum,50 µg/mL
same,MIC,Aspergillus flavus,25 µg/mL
C=CCN1[C@H](c2ccccc2)[C@@H](C)/C(=N/O)[C@@H](C)[C@@H]1c1ccccc1 (relative stereo),MIC,Staphylococcus aureus,50 µg/mL
same,MIC,Bacillus subtilis,25 µg/mL
same,MIC,Salmonella typhi,100 µg/mL
same,MIC,Escherichia coli,50 µg/mL
same,MIC,Pseudomonas,50 µg/mL
same,MIC,Penicillium chrysogenum,100 µg/mL
same,MIC,Aspergillus niger,50 µg/mL
same,MIC,Rhizopus,200 µg/mL
same,MIC,Fusarium oxysporum,50 µg/mL
same,MIC,Aspergillus flavus,100 µg/mL
C=CCN1[C@H](c2ccccc2)C/C(=N\O)[C@@H](CC)[C@@H]1c1ccccc1 (relative stereo),MIC,Staphylococcus aureus,25 µg/mL
same,MIC,Bacillus subtilis,12.5 µg/mL
same,MIC,Salmonella typhi,25 µg/mL
same,MIC,Escherichia coli,100 µg/mL
same,MIC,Pseudomonas,50 µg/mL
same,MIC,Penicillium chrysogenum,50 µg/mL
same,MIC,Aspergillus niger,12.5 µg/mL
same,MIC,Rhizopus,50 µg/mL
same,MIC,Fusarium oxysporum,25 µg/mL
same,MIC,Aspergillus flavus,6.25 µg/mL
C=CCN1[C@@H](c2ccccc2)C(C)(C)/C(=N/O)C[C@H]1c1ccccc1 (relative stereo),MIC,Staphylococcus aureus,12.5 µg/mL
same,MIC,Bacillus subtilis,25 µg/mL
same,MIC,Salmonella typhi,100 µg/mL
same,MIC,Escherichia coli,100 µg/mL
same,MIC,Pseudomonas,50 µg/mL
same,MIC,Penicillium chrysogenum,12.5 µg/mL
same,MIC,Aspergillus niger,25 µg/mL
same,MIC,Rhizopus,25 µg/mL
same,MIC,Fusarium oxysporum,50 µg/mL
same,MIC,Aspergillus flavus,25 µg/mL
C=CCN1[C@H](c2ccccc2)C/C(=N\OCc2ccccc2)[C@@H](C)[C@@H]1c1ccccc1 (relative stereo),MIC,Staphylococcus aureus,50 µg/mL
same,MIC,Bacillus subtilis,6.25 µg/mL
same,MIC,Salmonella typhi,12.5 µg/mL
same,MIC,Escherichia coli,25 µg/mL
same,MIC,Pseudomonas,50 µg/mL
same,MIC,Penicillium chrysogenum,100 µg/mL
same,MIC,Aspergillus niger,50 µg/mL
same,MIC,Rhizopus,25 µg/mL
same,MIC,Fusarium oxysporum,200 µg/mL
same,MIC,Aspergillus flavus,50 µg/mL
C=CCN1[C@H](c2ccc(C)cc2)C/C(=N\OCc2ccccc2)[C@@H](C)[C@@H]1c1ccc(C)cc1 (relative stereo),MIC,Staphylococcus aureus,100 µg/mL
same,MIC,Bacillus subtilis,50 µg/mL
same,MIC,Salmonella typhi,50 µg/mL
same,MIC,Escherichia coli,200 µg/mL
same,MIC,Pseudomonas,100 µg/mL
same,MIC,Penicillium chrysogenum,6.25 µg/mL
same,MIC,Aspergillus niger,12.5 µg/mL
same,MIC,Rhizopus,50 µg/mL
same,MIC,Fusarium oxysporum,100 µg/mL
same,MIC,Aspergillus flavus,100 µg/mL
C=CCN1[C@H](c2ccc(Cl)cc2)C/C(=N\OCc2ccccc2)[C@@H](C)[C@@H]1c1ccc(Cl)cc1 (relative stereo),MIC,Staphylococcus aureus,6.25 µg/mL
same,MIC,Bacillus subtilis,25 µg/mL
same,MIC,Salmonella typhi,50 µg/mL
same,MIC,Escherichia coli,12.5 µg/mL
same,MIC,Pseudomonas,100 µg/mL
same,MIC,Penicillium chrysogenum,6.25 µg/mL
same,MIC,Aspergillus niger,25 µg/mL
same,MIC,Rhizopus,6.25 µg/mL
same,MIC,Fusarium oxysporum,25 µg/mL
same,MIC,Aspergillus flavus,12.5 µg/mL
C=CCN1[C@H](c2ccc(OC)cc2)C/C(=N\OCc2ccccc2)[C@@H](C)[C@@H]1c1ccc(OC)cc1 (relative stereo),MIC,Staphylococcus aureus,12.5 µg/mL
same,MIC,Bacillus subtilis,50 µg/mL
same,MIC,Salmonella typhi,25 µg/mL
same,MIC,Escherichia coli,100 µg/mL
same,MIC,Pseudomonas,6.25 µg/mL
same,MIC,Penicillium chrysogenum,50 µg/mL
same,MIC,Aspergillus niger,12.5 µg/mL
same,MIC,Rhizopus,25 µg/mL
same,MIC,Fusarium oxysporum,6.25 µg/mL
same,MIC,Aspergillus flavus,100 µg/mL
C=CCN1[C@@H](c2ccccc2)C/C(=N/OCc2ccccc2)C[C@H]1c1ccccc1 (relative stereo),MIC,Staphylococcus aureus,50 µg/mL
same,MIC,Bacillus subtilis,25 µg/mL
same,MIC,Salmonella typhi,100 µg/mL
same,MIC,Escherichia coli,6.25 µg/mL
same,MIC,Pseudomonas,200 µg/mL
same,MIC,Penicillium chrysogenum,100 µg/mL
same,MIC,Aspergillus niger,12.5 µg/mL
same,MIC,Rhizopus,50 µg/mL
same,MIC,Fusarium oxysporum,50 µg/mL
same,MIC,Aspergillus flavus,100 µg/mL
C=CCN1[C@H](c2ccccc2)[C@@H](C)/C(=N/OCc2ccccc2)[C@@H](C)[C@@H]1c1ccccc1 (relative stereo),MIC,Staphylococcus aureus,12.5 µg/mL
same,MIC,Bacillus subtilis,100 µg/mL
same,MIC,Salmonella typhi,50 µg/mL
same,MIC,Escherichia coli,100 µg/mL
same,MIC,Pseudomonas,25 µg/mL
same,MIC,Penicillium chrysogenum,50 µg/mL
same,MIC,Aspergillus niger,200 µg/mL
same,MIC,Rhizopus,100 µg/mL
same,MIC,Fusarium oxysporum,50 µg/mL
same,MIC,Aspergillus flavus,100 µg/mL
C=CCN1[C@H](c2ccccc2)C/C(=N\OCc2ccccc2)[C@@H](CC)[C@@H]1c1ccccc1 (relative stereo),MIC,Staphylococcus aureus,200 µg/mL
same,MIC,Bacillus subtilis,50 µg/mL
same,MIC,Salmonella typhi,25 µg/mL
same,MIC,Escherichia coli,6.25 µg/mL
same,MIC,Pseudomonas,100 µg/mL
same,MIC,Penicillium chrysogenum,12.5 µg/mL
same,MIC,Aspergillus niger,50 µg/mL
same,MIC,Rhizopus,12.5 µg/mL
same,MIC,Fusarium oxysporum,25 µg/mL
same,MIC,Aspergillus flavus,100 µg/mL
C=CCN1[C@@H](c2ccccc2)C(C)(C)/C(=N/OCc2ccccc2)C[C@H]1c1ccccc1 (relative stereo),MIC,Staphylococcus aureus,50 µg/mL
same,MIC,Bacillus subtilis,6.25 µg/mL
same,MIC,Salmonella typhi,12.5 µg/mL
same,MIC,Escherichia coli,50 µg/mL
same,MIC,Pseudomonas,25 µg/mL
same,MIC,Penicillium chrysogenum,6.25 µg/mL
same,MIC,Aspergillus niger,25 µg/mL
same,MIC,Rhizopus,50 µg/mL
same,MIC,Fusarium oxysporum,12.5 µg/mL
same,MIC,Aspergillus flavus,12.5 µg/mL
C=CCN1[C@H](c2ccccc2)C/C(=N\O)[C@@H](C)[C@@H]1c1ccccc1 (relative stereo),MIC,Staphylococcus aureus,100 µg/mL
same,MIC,Bacillus subtilis,50 µg/mL
same,MIC,Salmonella typhi,100 µg/mL
same,MIC,Escherichia coli,50 µg/mL
same,MIC,Pseudomonas,200 µg/mL
same,MIC,Penicillium chrysogenum,100 µg/mL
same,MIC,Aspergillus niger,50 µg/mL
same,MIC,Rhizopus,25 µg/mL
same,MIC,Fusarium oxysporum,100 µg/mL
same,MIC,Aspergillus flavus,200 µg/mL
C=CCN1[C@H](c2ccc(Cl)cc2)C/C(=N\O)[C@@H](C)[C@@H]1c1ccc(Cl)cc1 (relative stereo),MIC,Staphylococcus aureus,6.25 µg/mL
same,MIC,Bacillus subtilis,50 µg/mL
same,MIC,Salmonella typhi,12.5 µg/mL
same,MIC,Escherichia coli,100 µg/mL
same,MIC,Pseudomonas,50 µg/mL
same,MIC,Penicillium chrysogenum,50 µg/mL
same,MIC,Aspergillus niger,6.25 µg/mL
same,MIC,Rhizopus,25 µg/mL
same,MIC,Fusarium oxysporum,12.5 µg/mL
same,MIC,Aspergillus flavus,50 µg/mL
C=CCN1[C@H](c2ccc(OC)cc2)C/C(=N\O)[C@@H](C)[C@@H]1c1ccc(OC)cc1 (relative stereo),MIC,Staphylococcus aureus,25 µg/mL
same,MIC,Bacillus subtilis,100 µg/mL
same,MIC,Salmonella typhi,100 µg/mL
same,MIC,Escherichia coli,50 µg/mL
same,MIC,Pseudomonas,12.5 µg/mL
same,MIC,Penicillium chrysogenum,100 µg/mL
same,MIC,Aspergillus niger,50 µg/mL
same,MIC,Rhizopus,25 µg/mL
same,MIC,Fusarium oxysporum,25 µg/mL
same,MIC,Aspergillus flavus,12.5 µg/mL
C[C@@H]1[C@H](O)[C@@H](C)/C=C/C=C/C=C/C=C/C=C/C=C/C=C/[C@H](O[C@@H]2O[C@H](C)[C@@H](O)[C@H](N)[C@@H]2O)C[C@@H]2O[C@](O)(C[C@@H](O)C[C@@H](O)[C@H](O)CC[C@@H](O)C[C@@H](O)CC(=O)O[C@H]1C)C[C@H](O)[C@H]2C(=O)O [AMPHOTERICIN B],MIC,Penicillium chrysogenum,12.5 µg/mL
same,MIC,Aspergillus niger,50 µg/mL
same,MIC,Rhizopus,25 µg/mL
same,MIC,Fusarium oxysporum,50 µg/mL
same,MIC,Aspergillus flavus,50 µg/mL
CN[C@@H]1[C@H](O[C@H]2[C@H](O[C@H]3[C@H](O)[C@@H](O)[C@H](N=C(N)N)[C@@H](O)[C@@H]3N=C(N)N)O[C@@H](C)[C@]2(O)C=O)O[C@@H](CO)[C@H](O)[C@H]1O [STREPTOMYCIN],MIC,Staphylococcus aureus,50 µg/mL
same,MIC,Bacillus subtilis,12.5 µg/mL
same,MIC,Salmonella typhi,50 µg/mL
same,MIC,Escherichia coli,12.5 µg/mL
same,MIC,Pseudomonas,25 µg/mL
